System: vascular network structure of 3D hepatic model (PXB cells, SEC, Lx2)
Source text: The vascular network structure of the cell structure becomes visible by subjecting the 3D hepatic model to immunostaining, fluorescent modification, or a combination of immunostaining and fluorescent modification.
The preparation process may include, for example, a first collection process of collecting cells other than fresh human hepatocytes isolated from chimeric mice with human hepatocytes (PXB cell) shown in Table 1, a second collection process of collecting PXB cells, a mixture obtaining process of obtaining a cell mixture, a suspension obtaining process of obtaining a cell suspension, a gel formation process of forming a fibrin gel, and a model obtaining process of obtaining a 3D model.
In the mixture obtaining process, for example, the cells collected in the first collection process and the second collection process are mixed so that a total quantity of cells per well becomes 30,000 cells at the cell ratios of PXB cells, SEC and Lx2 in the tissue of 65%, 25% and 10%, respectively, to obtain a cell mixture (an example of cell structure). The cell mixture contains multiple types of cells including vascular endothelial cells and other stromal cells.
In the suspension obtaining process, first, for example, a heparin-collagen solution is prepared by mixing equal amounts of a 1.0 mg/ml heparin solution (buffer: 100 mM Tris-HCL) and a 0.3 mg/ml collagen solution (buffer: 5 mM acetate). Then, 100 μL of the heparin-collagen solution prepared as described above is added to each cell mixture obtained in the mixture obtaining process, and the mixture is suspended until the cells are no longer visually observable and then centrifuged (400 g×2 min) to obtain a viscous solution. After the supernatant is removed from the viscous solution, a solvent is added to the viscous solution so that the final volume of the viscous solution becomes the solution amount of [the number of wells to be seeded]×2 μL. Thus, a cell suspension is obtained. […]

O=P1(N(CCCl)CCCl)NCCCO1 (stereo not drawn) [cyclophosphamide]
length of the vascular network structure in the captured images (FIGS. 9A-9F, dosage concentration 0 M, 143 M, 430 M, 1430 μM, 4300 μM and 14300 M): the higher the dosage concentration of cyclophosphamide, the smaller the length of the vascular network structure
skeleton length in the extracted images (FIGS. 9G-9L, dosage concentration 0 M, 143 M, 430 M, 1430 μM, 4300 μM and 14300 M): the higher the dosage concentration of cyclophosphamide, the smaller the skeleton length
shape of the vascular network structure (skeleton length and number of branch points in the extracted images) (FIGS. 10A and 10B, against dosage concentration): the shape of the vascular network structure significantly changes and the vascular network structure decreases when the dosage concentration of cyclophosphamide exceeds a certain level
